Reference: patent US20250222066A1, “COMPOSITIONS AND METHODS OF TREATING, PREVENTING OR INHIBITING A FACULTATIVE ANAEROBE INFECTION” (UNIVERSITY OF UTAH RESEARCH FOUNDATION, priority 2022, published 2025)
Entries after “also recorded” stand apart in the source; their conditions may differ. Where two headings read alike, the source gives them in different places.

Experiments:
[1] = tested on: S. aureus ATCC 6538 biofilms; test: CDC biofilm reactor coupons, 24 h antibiotic treatment, bioburden by serial dilution plating; type: cell-based; details: for anti-biofilm efficacy of hypoxia-activated prodrug compared with antibiotic controls: 1 mM compound with 1 mM nafcillin or 1 mM gentamicin, 24 h; for synergy of the companion antibiotic with metronidazole against biofilms: 24 h treatment; for eradication of biofilms: concentrations over 60,000 X the MIC, 6,000 X the nephrotoxic and ototoxic thresholds, 25-50 X the cytotoxic limit
Method: For determining the broad-spectrum utility of metronidazole, respective bacterial species were grown into stationary biofilms using a 2- or 3-day species-specific growth protocol in a CDC biofilm reactor on standard 0.5 in polycarbonate coupons. Each reactor holds up to 24 coupons/samples with adherent biofilms. Bacterial bioburden, represented as colony forming units (CFUs), from five reactor samples/coupons (n=5) were quantified by first dispersing the bacterial biofilms in 2 ml of PBS by standardized vortex-sonication technique and serial-dilution plating. Importantly, this quantification technique provides bioburden data with logarithmic sensitivity. […] The gray shaded regions represent standard deviations.
(§1) Three groups of 5 coupons/samples (n=5) were placed into 2 ml treatments either containing 0.5-1 mg/ml of gentamicin, metronidazole, or combinations thereof (in CAMHB) and incubated for 24 h at 37° C. Importantly, the total antibiotic concentration (mg/ml) was fixed for each sample to enable assessment of compound synergy.
After the 24 h treatment, the bacteria adhered to coupons were quantified by rinsing the samples very gently in excess PBS followed by vortexing and sonicating to disperse the biofilm in 2 ml PBS and subsequent serial-dilution plating. The bioburden of the adhered bacteria is represented by the blue bars in FIG. 1. […] Broth bioburden is represented by the red bars in FIG. 1.
Twelve hypoxia activated prodrugs from three categories were tested: nitroimidazoles (same class as metronidazole), nitrofurans, and anti-tumor agents.
To test each compound, the contents of an entire CDC-biofilm reactor (24 coupons/biofilm samples) were used (see FIG. 2 and FIG. 3). […] Using the methods described above, 4 reactor samples/coupons served as reactor controls. The remaining 20 samples/coupons were split into 4 treatment groups of 5 samples each (n=5).
For testing against S. aureus biofilms, the compounds were prepared at a concentration of 1 mM in CAMHB; coupons were treated in 2 ml for 24 h. Compounds were intentionally prepared in units of molarity rather than the more common weight/volume ratios of clinicians.
This choice was made for two reasons.
Two of the treatment groups were the same for each test: one in 1 mM nafcillin (a β-lactam antibiotic) and a second in 1 mM gentamicin. […] For comparison for most compounds 1 mM ranges from ˜0.15-0.5 mg/ml, 1 or 2 Log 2 dilutions below tests in FIG. 1. […] The other compounds were tested at the same concentrations.
Quantification of the post-treatment residual bioburden was performed by dispersing biofilm bacteria into the 2 ml treatments with its constituent bacteria by vortexing, and sonicating. […] The pelleted bacteria were resuspended and measured by the serial dilution plating technique. Thus, the values presented in FIGS. 2, 3 and 4 represent the cumulative change in bioburden from the surface-attached biofilms and bacteria in the treatments.

[2] = tested on: P. aeruginosa ATCC 27853 biofilms; test: as above; type: cell-based; details: for anti-biofilm efficacy of hypoxia-activated prodrug compared with antibiotic controls: 1 mM compound with cefepime or 0.1 mM gentamicin, 24 h
Method: Twelve hypoxia activated prodrugs from three categories were tested: nitroimidazoles (same class as metronidazole), nitrofurans, and anti-tumor agents. For the screening, S. aureus ATCC 6538 was used with the best performing compounds subsequently tested against P. aeruginosa ATCC 27853; these pathogens can then be used as inocula for infection development in the animal work.
To test each compound, the contents of an entire CDC-biofilm reactor (24 coupons/biofilm samples) were used (see FIG. 2 and FIG. 3). These experiments were designed to have multiple internal controls to enable cross-data comparisons (see FIG. 4). Using the methods described above, 4 reactor samples/coupons served as reactor controls. The remaining 20 samples/coupons were split into 4 treatment groups of 5 samples each (n=5).
Two of the treatment groups were the same for each test: one in 1 mM nafcillin (a β-lactam antibiotic) and a second in 1 mM gentamicin. Likewise, the second two treatment groups had either 1 mM nafcillin or 1 mM gentamicin both with the addition of 1 mM of the compound tested. For comparison for most compounds 1 mM ranges from ˜0.15-0.5 mg/ml, 1 or 2 Log 2 dilutions below tests in FIG. 1. For testing of P. aeruginosa biofilms (FIG. 3), the β-lactam cefepime was substituted for nafcillin due to resistance and the gentamicin concentration was reduced from 1 to 0.1 mM because of excessive kill compared with S. aureus biofilms. The other compounds were tested at the same concentrations.
Quantification of the post-treatment residual bioburden was performed by dispersing biofilm bacteria into the 2 ml treatments with its constituent bacteria by vortexing, and sonicating. The antibiotic was removed from a representative aliquot (1 ml) sample, alternating steps of centrifugally pelleting the bacteria, removing 90% of the solution, replacing 90% of the solution and repeating 2 additional times thereby decreasing the antibiotic in solution below the MIC values. The pelleted bacteria were resuspended and measured by the serial dilution plating technique. Thus, the values presented in FIGS. 2, 3 and 4 represent the cumulative change in bioburden from the surface-attached biofilms and bacteria in the treatments.

S. epidermidis = test: Minimum inhibitory concentration (MIC) assay, planktonic bacteria; type: cell-based, Staphylococcus epidermidis; details: for MIC: Staphylococcus epidermidis, for 1:1 combinations MIC is the sum of both compounds
Method: as §1
(§2) For comparison to these biofilm tests with adjunctive metronidazole, the MIC was determined for each organism and each compound tested.

S. aureus biofilms = test: Radical-scavenger edaravone protection of biofilms from metronidazole (FIG. 6); type: cell-based; details: 0-2 mg/ml edaravone with 0.25 mg/ml nafcillin and 4 mg/ml metronidazole, 24 h
Method: . S. aureus biofilms grown using a CDC biofilm reactor and treated with 2 ml solutions of CAMHB in 0.25 mg/ml nafcillin (serving as a bacteriostatic agent) and 4 mg/ml metronidazole (with herein established activity against biofilms) and the indicated concentration of the potent radical-scavenger edaravone (0-2 mg/ml). After treatment, the biofilm coupons were removed from the treatment broth, rinsed and the bioburden quantified using a method of vortexing, sonicating, and serial dilution plating.
In one experiment, S. aureus biofilms were subjected to a bacteriostatic solution of nafcillin (0.25 mg/ml) and an aggressive dose of metronidazole (4 mg/ml). The coupons were divided evenly into 5 groups (n=8) which were treated with serial concentrations of the potent radical scavenger edaravone ranging from 0-2 mg/ml. […]. In a second experiment, biofilms were treated with a small sublethal dose of the nitroimidazole pimonidazole (0.06 mg/ml). Like the other nitroimidazoles, pimonidazole is reductively activated in hypoxic cells by a nitro-reductase enzyme. In hypoxia, the reduced compound indiscriminately forms adducts with cellular components including adducts with thiol groups which can be recognized with a primary antibody by immunohistochemical staining (FIG. 5A and FIG. 9A) (Masaki, Y. et al. PLOS One 11, e0161639 (2016)). […]

[3] = tested on: biofilm-contaminated fixation plates; test: Sheep model of biofilm-related orthopedic (musculoskeletal) infection; type: in vivo
Method: Use of the Pouch device in a sheep model of biofilm-related orthopedic infection. The Pouch device and two clinical standards of care (IV-vancomycin, and gentamicin-loaded Stimulan® beads) were tested in a sheep model of biofilm-related orthoepic infection. Briefly, the proximal medial aspect of the right tibia is subjected to a blast from an air cannon to simulate traumatic soft tissue damage. In a surgical procedure, the periosteum is stripped, and two biofilm-contaminated fixation plates are situated above osteotomized fractures. At necropsy, one of the fixation plates and the surrounding tissue serve for microbiological analysis whereas the plate and tissues of the second site are used for histological analysis. Four groups of sheep (n=5/group) were used in testing. The first group served as a positive control of infection. The Pouch device was tested in one group. The Pouch device was placed during the surgery and refilled daily for 10 days with 480 mg of gentamicin sulfate, 1 g of vancomycin, and 36 mg of rifampin. Ten days after surgery the Pouch device was removed, and the sheep monitored for an additional 11 days; endpoint was 21 days for the groups. For comparison, clinical standards of care were tested in the remaining two groups: IV vancomycin, and Gentamicin-loaded Stimulan® beads. […]

S. aureus = test: Minimum inhibitory concentration (MIC) assay, planktonic bacteria; type: cell-based
From the text: Shortcomings of clinical antibiotic susceptibility assays. The antibiotic-susceptibility assays used to guide clinical treatment and prophylaxis rely on actively-dividing planktonic bacteria (Williams, D. L. & Costerton, J. W. J Biomed Mat Res B 100, 1163-1169 (2011)). Among the assays performed by clinical reference laboratories are the minimum inhibitory concentration (MIC), and disk diffusion (Kirby-Bauer) assays. The ubiquity of these assays is owed to the fact that they are high throughput, relatively quick to perform, repeatable, and have short turnaround times. They inform clinicians regarding which antibiotic are applicable for a given infection from a simple site swab, blood, or aspirate sample. […] Thus, when a compound, such as metronidazole performs poorly in an MIC assay, a physician would be thoroughly dissuaded from using it. Likewise, in drug-development, a high MIC value would exclude potentially useful anti-biofilm agents from candidate drug libraries. […] Using orthodox clinical methodology, there would be no basis to administer metronidazole in the treatment of a S. aureus-related infections, despite its exceptional efficacy against bacterial biofilms of the same isolates. The MIC assay fails to provide any information about susceptibility profiles of bacteria that reside in the biofilm phenotype.
as §2

A. baumannii = test: as above; type: cell-based; details: for 1:1 combinations MIC is the sum of both compounds
Method: as §2

MRSA USA300 = test: as above; type: cell-based; details: for 1:1 combinations MIC is the sum of both compounds
Method: as §2

P. aeruginosa = test: as above; type: cell-based; details: for 1:1 combinations MIC is the sum of both compounds
Method: as §2

E. coli = test: as above; type: cell-based, Escherichia coli; details: for 1:1 combinations MIC is the sum of both compounds
Method: as §2

K. pneumoniae = test: as above; type: cell-based, Klebsiella pneumoniae; details: for 1:1 combinations MIC is the sum of both compounds
Method: as §2

Compound: Cn1c(COP(=O)(NCCBr)NCCBr)cnc1[N+](=O)[O-] [Evofosfamide]
- anti-biofilm efficacy of hypoxia-activated prodrug compared with antibiotic controls [1]: significant activity
- anti-biofilm efficacy of hypoxia-activated prodrug compared with antibiotic controls [2]: significant activity

Compound: C[C@H]1COc2c(N3CCN(C)CC3)c(F)cc3c(=O)c(C(=O)O)cn1c23 [Levofloxacin, levofloxacin]
- MIC (S. epidermidis; aerobic, read-out: Aerobic MIC): 0.125 µg/mL
- MIC (S. epidermidis; anaerobic, read-out: Anaerobic MIC): 0.125 µg/mL

Compound: Nc1n[n+]([O-])c2ccccc2[n+]1[O-] [Tirapazamine]
- anti-biofilm efficacy of hypoxia-activated prodrug compared with antibiotic controls [1]: significant activity
- anti-biofilm efficacy of hypoxia-activated prodrug compared with antibiotic controls [2]: significant activity

Compound: CO/N=C(\C(=O)N[C@@H]1C(=O)N2C(C(=O)[O-])=C(C[N+]3(C)CCCC3)CS[C@H]12)c1csc(N)n1 [cefepime]
- synergy of the companion antibiotic with hypoxia-activated prodrugs ([2]; Gram-negative organisms): least synergistic

Compound: CC1=NN(c2ccccc2)C(=O)C1 [edaravone]
- effect on the killing of biofilms by metronidazole (S. aureus biofilms): neutralized the killing-effect of metronidazole in a dose dependent manner; also recorded: proportionally negates the killing power of metronidazole; also recorded: proportionally negate killing effects of metronidazole

Compound: O=C1OC(CN2CCOCC2)CN1/N=C/c1ccc([N+](=O)[O-])o1 (stereo not shown) [furaltadone]
- anti-biofilm efficacy of hypoxia-activated prodrug compared with antibiotic controls [1]: remarkable efficacy
- anti-biofilm efficacy with β-lactam antibiotics ([1]; paired with β-lactam (nafcillin; cefepime for P. aeruginosa)): considerable efficacy
- anti-biofilm efficacy of hypoxia-activated prodrug compared with antibiotic controls [2]: remarkable efficacy

Compound: CCOc1ccc2ccccc2c1C(=O)N[C@@H]1C(=O)N2[C@@H]1SC(C)(C)[C@@H]2C(=O)O [nafcillin]
- synergy of the companion antibiotic with metronidazole against biofilms [1]: did not display synergy nor antagonism; also recorded: least synergistic

Compound: NC(=O)N/N=C/c1ccc([N+](=O)[O-])o1 [nitrofurazone]
- anti-biofilm efficacy of hypoxia-activated prodrug compared with antibiotic controls [1]: showed benchtop anti-biofilm utility

Compound: CN[C@H](CC(C)C)C(=O)N[C@H]1C(=O)N[C@@H](CC(N)=O)C(=O)N[C@H]2C(=O)N[C@H]3C(=O)N[C@H](C(=O)N[C@H](C(=O)O)c4cc(O)cc(O)c4-c4cc3ccc4O)[C@H](O)c3ccc(c(Cl)c3)Oc3cc2cc(c3O[C@@H]2O[C@H](CO)[C@@H](O)[C@H](O)[C@H]2O[C@H]2C[C@](C)(N)[C@H](O)[C@H](C)O2)Oc2ccc(cc2Cl)[C@H]1O [vancomycin]
- eradication of biofilms [1]: failed to eradicate
- bioburden levels compared to the positive control ([3]; 21 days): not statistically significantly different
- reduction in bacterial bioburden from the initial inocula ([3]; 21 days after inoculation, treatment for 10 days, n=5 sheep/group): 2.5 log10 units

Compound: gentamicin
- Aerobic MIC (S. aureus; aerobic, for 1:1 combinations MIC is the sum of both compounds): 1 µg/mL
- Anaerobic MIC (S. aureus; anaerobic, for 1:1 combinations MIC is the sum of both compounds): 8 µg/mL
- MIC against S. aureus (S. aureus; isolate used in biofilm tests): 1 µg/mL
- Aerobic MIC (A. baumannii): 2 µg/mL
- Aerobic MIC (MRSA USA300; aerobic): 2 µg/mL
- Anaerobic MIC (MRSA USA300; anaerobic): 16 µg/mL
- Aerobic MIC (P. aeruginosa; aerobic): 2 µg/mL
- Anaerobic MIC (P. aeruginosa; anaerobic): 2 µg/mL
- resistance of the isolate (S. epidermidis; isolate used in FIG. 1): complete resistance
- Aerobic MIC (E. coli; aerobic): 0.5 µg/mL
- Anaerobic MIC (E. coli; anaerobic): 4 µg/mL
- Aerobic MIC (K. pneumoniae; aerobic): 2 µg/mL
- Anaerobic MIC (K. pneumoniae; anaerobic): 4 µg/mL
- synergy of the companion antibiotic with metronidazole against biofilms [1]: synergistic; also recorded: considerably strengthened; also recorded: strong synergy
- eradication of biofilms [1]: failed to eradicate
